From US7320996B2, “Indolinone protein kinase inhibitors and cyclooxygenase inhibitors for use in combination therapy for the treatment of cancer” (Sugen, Inc, priority 2001, dated 2008)

Legend:
GST-Flk1 = biological target: T1, GST-Flk1 (Mus musculus, UniProt P35918); test: GST-FLK-1 bioassay (bio flkGST), ELISA; format: biochemical
T1 construct: GST-Flk1cd purified from sf9 recombinant baculovirus transformation (SUGEN, Inc.); host or cells: Sf9 (baculovirus)

[1] = biological target: T2, PDGFR-β (NIH 3T3 cell lysate) (Homo sapiens, UniProt P09619); test: PDGFR bioassay, ELISA; format: biochemical; settings: read-out: bio PDGF IC50
T2 construct: host or cells: NIH 3T3

human cdk2/cyclin A = biological target: T3, human cdk2/cyclin A (Homo sapiens, UniProt P24941); test: CDK2/cyclin A scintillation proximity assay (cdk2spa); format: biochemical; settings: read-out: cdk2spa C50
T3 construct: host or cells: Sf9

EGFR (A431 cell lysate) = biological target: T4, EGFR (A431 cell lysate) (Homo sapiens, UniProt P00533); test: EGFR bioassay, ELISA; format: biochemical; settings: read-out: bio EGF IC50
T4 construct: A431 cell lysate (SUGEN, Inc.); host or cells: A431

[2] = biological target: T5, HER-2 kinase (EGFr/HER-2 chimera/3T3-C7 cell line) (Homo sapiens, UniProt P04626); test: Cellular HER-2 kinase assay, whole-cell ELISA; format: cell-based; settings: read-out: Her2 Kinase IC50
T5 construct: fused on or other part: EGFR extracellular part, stimulated by EGF and captured by the anti-EGFR antibody SUMO1; P00533 (Epidermal growth factor receptor)
T5 sequence (P04626 720-987 limits assumed, change not shown): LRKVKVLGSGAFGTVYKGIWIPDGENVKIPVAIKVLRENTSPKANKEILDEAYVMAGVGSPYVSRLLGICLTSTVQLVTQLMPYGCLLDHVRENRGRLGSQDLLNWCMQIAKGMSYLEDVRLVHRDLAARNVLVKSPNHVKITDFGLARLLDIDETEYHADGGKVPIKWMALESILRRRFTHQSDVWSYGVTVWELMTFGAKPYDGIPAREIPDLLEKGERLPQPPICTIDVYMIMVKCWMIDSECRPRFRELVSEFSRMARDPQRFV

T2 sequence (P09619 33-1106): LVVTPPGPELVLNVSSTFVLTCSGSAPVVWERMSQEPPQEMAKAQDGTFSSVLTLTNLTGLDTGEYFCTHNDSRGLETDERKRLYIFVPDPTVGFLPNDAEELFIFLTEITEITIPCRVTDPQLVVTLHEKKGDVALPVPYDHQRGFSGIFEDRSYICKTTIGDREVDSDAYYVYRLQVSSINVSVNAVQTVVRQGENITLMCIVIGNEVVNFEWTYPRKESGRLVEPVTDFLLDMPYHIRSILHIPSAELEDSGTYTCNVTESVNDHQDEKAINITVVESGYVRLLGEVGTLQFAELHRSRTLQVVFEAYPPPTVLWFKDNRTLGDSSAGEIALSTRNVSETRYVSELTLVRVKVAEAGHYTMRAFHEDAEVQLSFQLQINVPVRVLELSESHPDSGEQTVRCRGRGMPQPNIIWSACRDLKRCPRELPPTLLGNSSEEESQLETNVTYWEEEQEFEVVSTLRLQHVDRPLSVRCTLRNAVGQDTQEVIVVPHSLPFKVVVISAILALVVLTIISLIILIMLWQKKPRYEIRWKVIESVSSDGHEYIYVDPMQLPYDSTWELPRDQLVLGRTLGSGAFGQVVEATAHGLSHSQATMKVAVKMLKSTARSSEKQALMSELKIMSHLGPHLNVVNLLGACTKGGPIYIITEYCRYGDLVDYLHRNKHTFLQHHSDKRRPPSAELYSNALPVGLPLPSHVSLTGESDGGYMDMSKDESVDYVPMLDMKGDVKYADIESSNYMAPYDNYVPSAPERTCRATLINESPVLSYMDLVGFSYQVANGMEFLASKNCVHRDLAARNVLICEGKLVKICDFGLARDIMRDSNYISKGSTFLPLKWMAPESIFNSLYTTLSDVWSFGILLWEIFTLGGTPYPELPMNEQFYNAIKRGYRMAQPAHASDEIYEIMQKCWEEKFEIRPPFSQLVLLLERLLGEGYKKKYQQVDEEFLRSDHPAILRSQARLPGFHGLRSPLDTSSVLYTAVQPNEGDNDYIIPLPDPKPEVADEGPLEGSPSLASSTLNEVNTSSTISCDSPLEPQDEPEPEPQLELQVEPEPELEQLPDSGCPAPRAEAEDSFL
T4 sequence (P00533 25-1210): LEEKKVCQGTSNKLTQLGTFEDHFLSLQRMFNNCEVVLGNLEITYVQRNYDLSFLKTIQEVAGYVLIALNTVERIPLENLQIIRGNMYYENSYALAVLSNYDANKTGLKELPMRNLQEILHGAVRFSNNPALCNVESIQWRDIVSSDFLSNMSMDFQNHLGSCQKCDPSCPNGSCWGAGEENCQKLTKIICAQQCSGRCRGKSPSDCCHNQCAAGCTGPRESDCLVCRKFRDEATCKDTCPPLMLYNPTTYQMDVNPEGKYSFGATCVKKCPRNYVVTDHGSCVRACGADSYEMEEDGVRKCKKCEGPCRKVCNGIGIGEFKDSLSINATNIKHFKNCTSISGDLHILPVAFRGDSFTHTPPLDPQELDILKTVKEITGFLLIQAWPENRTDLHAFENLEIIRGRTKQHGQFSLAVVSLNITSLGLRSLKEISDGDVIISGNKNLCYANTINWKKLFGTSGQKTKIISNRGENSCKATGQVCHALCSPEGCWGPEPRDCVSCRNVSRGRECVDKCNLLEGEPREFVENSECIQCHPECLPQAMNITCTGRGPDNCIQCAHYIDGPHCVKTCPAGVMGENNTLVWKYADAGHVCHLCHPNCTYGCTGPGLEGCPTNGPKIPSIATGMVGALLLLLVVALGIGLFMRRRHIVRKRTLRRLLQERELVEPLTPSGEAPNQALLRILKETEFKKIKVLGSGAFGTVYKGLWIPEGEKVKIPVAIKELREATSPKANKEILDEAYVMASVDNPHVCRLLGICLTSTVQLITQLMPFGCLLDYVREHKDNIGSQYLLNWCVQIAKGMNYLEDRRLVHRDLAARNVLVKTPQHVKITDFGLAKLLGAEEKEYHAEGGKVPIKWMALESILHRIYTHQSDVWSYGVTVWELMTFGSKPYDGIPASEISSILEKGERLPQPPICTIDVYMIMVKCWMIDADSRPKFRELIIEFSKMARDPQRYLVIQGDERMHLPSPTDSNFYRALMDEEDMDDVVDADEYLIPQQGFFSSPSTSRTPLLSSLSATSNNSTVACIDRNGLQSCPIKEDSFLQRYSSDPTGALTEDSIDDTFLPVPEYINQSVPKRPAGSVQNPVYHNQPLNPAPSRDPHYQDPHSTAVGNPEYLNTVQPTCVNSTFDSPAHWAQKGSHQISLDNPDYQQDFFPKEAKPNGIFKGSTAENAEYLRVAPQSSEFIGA
T1 sequence (P35918 784-1345 limits assumed): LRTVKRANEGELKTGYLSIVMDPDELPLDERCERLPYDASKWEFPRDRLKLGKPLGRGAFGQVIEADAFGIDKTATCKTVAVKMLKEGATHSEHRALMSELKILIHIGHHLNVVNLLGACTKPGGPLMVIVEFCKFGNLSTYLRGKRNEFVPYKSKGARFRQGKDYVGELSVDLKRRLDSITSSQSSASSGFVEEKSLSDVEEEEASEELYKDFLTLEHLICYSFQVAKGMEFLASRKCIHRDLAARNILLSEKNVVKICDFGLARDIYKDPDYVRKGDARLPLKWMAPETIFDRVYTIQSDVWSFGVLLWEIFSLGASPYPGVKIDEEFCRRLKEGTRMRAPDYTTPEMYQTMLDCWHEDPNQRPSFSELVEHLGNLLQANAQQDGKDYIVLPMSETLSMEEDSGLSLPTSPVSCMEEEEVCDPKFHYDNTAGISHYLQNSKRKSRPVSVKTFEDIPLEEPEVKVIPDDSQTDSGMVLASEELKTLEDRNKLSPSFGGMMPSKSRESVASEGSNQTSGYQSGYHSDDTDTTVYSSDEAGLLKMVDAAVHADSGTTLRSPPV

Row | SMILES | IC50 (GST-Flk1) [µM] | IC50 [1] [µM] | IC50 (human cdk2/cyclin A) [µM] | IC50 (EGFR (A431 cell lysate)) [µM] | IC50 [2] [µM]
1 | CC(=O)c1c(/C=C2\C(=O)Nc3ccc(Br)cc32)[nH]c(C(=O)NCCCN2CCOCC2)c1C [Example 31, 4-Acetyl-5-(5-bromo-2-oxo-1,2-dihydroindol-3-ylidenemethyl)-3-methyl-1H-pyrrole-2-carboxylic Acid (3-morpholin-4-ylpropyl)amide] | > 50 | > 100 | – | – | –
2 | CCN(CC)CCCNC(=O)c1c(C)[nH]c(/C=C2\C(=O)Nc3ccc(Br)cc32)c1-c1ccccc1 [Example 47, 5-(5-Bromo-2-oxo-1,2-dihydroindol-3-ylidenemethyl)-2-methyl-4-phenyl-1H-pyrrole-3-carboxylic Acid (3-diethylaminopropyl)amide] | – | – | > 20 | – | –
3 | CCN(CC)CCCNC(=O)c1[nH]c(/C=C2\C(=O)Nc3cc(OC)ccc32)cc1C [Example 16, 5-(6-Methoxy-2-oxo-1,2-dihydroindol-3-ylidenemethyl)-3-methyl-1H-pyrrole-2-carboxylic Acid (3-diethylamino-propyl)amide] | > 20 | – | – | > 100 | –
4 | Cc1c(C(=O)NCCCN2CCOCC2)[nH]c(/C=C2\C(=O)Nc3ccc(Br)cc32)c1C(=O)c1ccccc1 [Example 22, 4-Benzoyl-5-(5-bromo-2-oxo-1,2-dihydroindol-3-ylidenemethyl)-3-methyl-1H-pyrrole-2-carboxylic Acid (3-morpholin-4-ylpropyl)amide] | > 20 | > 100 | – | > 100 | –
5 | Cc1[nH]c(/C=C2\C(=O)Nc3cc(-c4ccccc4)ccc32)c(C)c1C(=O)NCCN(C)C [Example 49, 2,4-Dimethyl-5-(2-oxo-6-phenyl-1,2-dihydroindol-3-ylidenemethyl)-1H-pyrrole-3-carboxylic Acid (2-dimethylaminoethyl)amide] | – | < 0.78 | – | > 100 | > 100
6 | CCN(CC)CCCNC(=O)c1[nH]c(/C=C2\C(=O)Nc3ccc(OC)cc32)cc1C [Example 15, 5-(5-Methoxy-2-oxo-1,2-dihydroindol-3-ylidenemethyl)-3-methyl-1H-pyrrole-2-carboxylic Acid (3-diethylamino-propyl)amide] | > 20 | > 100 | – | > 100 | –
7 | Cc1c(C(=O)NCCCN2CCCC2)[nH]c(/C=C2\C(=O)Nc3ccc(Br)cc32)c1C(=O)c1ccccc1 [Example 24, 4-Benzoyl-5-(5-bromo-2-oxo-1,2-dihydroindol-3-ylidenemethyl)-3-methyl-1H-pyrrole-2-carboxylic Acid (3-pyrrolidin-1-ylpropyl)amide] | – | > 100 | – | – | –
8 | COc1ccccc1-c1ccc2c(c1)NC(=O)/C2=C\c1[nH]c(C)c(C(=O)NCCN2CCCC2)c1-c1ccccc1 [Example 43, 5-[6-(2-Methoxyphenyl)-2-oxo-1,2-dihydroindol-3-ylidenemethyl]-2-methyl-4-phenyl-1H-pyrrole-3-carboxylic Acid (2-pyrrolidin-1-ylethyl)amide] | – | – | – | > 100 | –
9 | Cc1[nH]c(/C=C2\C(=O)Nc3ccc(Cl)cc32)c(C)c1C(=O)NCCN(C)C [Example 50, 5-(5-Chloro-2-oxo-1,2-dihydroindol-3-ylidenemethyl)-2,4-dimethyl-1H-pyrrole-3-carboxylic Acid (2-dimethylamino-ethyl)amide] | – | < 0.78 | – | > 100 | > 100
10 | Cc1c(C(=O)NCCCN2CCCC2)[nH]c(/C=C2\C(=O)Nc3cc(-c4ccccc4)ccc32)c1C(=O)c1ccccc1 [Example 25, 4-Benzoyl-3-methyl-5-(2-oxo-6-phenyl-1,2-dihydroindol-3-ylidenemethyl)-1H-pyrrole-2-carboxylic Acid (3-pyrrolidin-1-ylpropyl)amide] | – | > 100 | – | – | –
11 | COc1ccccc1-c1ccc2c(c1)NC(=O)/C2=C\c1[nH]c(C)c(C(=O)NCCN(C)C)c1-c1ccccc1 [Example 45, 5-[6-(2-Methoxyphenyl)-2-oxo-1,2-dihydroindol-3-ylidenemethyl]-2-methyl-4-phenyl-1H-pyrrole-3-carboxylic Acid (2-dimethylaminoethyl)amide] | – | > 100 | – | > 100 | > 100
12 | Cc1cc(C(=O)NCCCN2CCCC2)[nH]c1/C=C1\C(=O)Nc2ccc(Br)cc21 [Example 6, 5-(5-Bromo-2-oxo-1,2-dihydroindol-3-ylidenemethyl)-4-methyl-1H-pyrrole-2-carboxylic Acid (3-pyrrolidin-1-yl-propyl)amide] | – | > 100 | – | – | –

Other lines, results leading:

Row | IC50 (GST-Flk1) [µM] | IC50 [1] [µM] | IC50 (human cdk2/cyclin A) [µM] | IC50 (EGFR (A431 cell lysate)) [µM] | IC50 [2] [µM] | SMILES
13 | – | – | – | > 100 | – | CCN(CC)CCNC(=O)c1c(C)[nH]c(/C=C2\C(=O)Nc3ccc(S(=O)(=O)N(C)C)cc32)c1C [Example 87, 5-(5-Dimethylsulfamoyl-2-oxo-1,2-dihydroindol-3-ylidenemethyl)-2,4-dimethyl-1H-pyrrole-3-carboxylic Acid (2-diethylaminoethyl)amide]
14 | – | < 0.78 | – | – | – | COc1ccccc1-c1ccc2c(c1)NC(=O)/C2=C\c1[nH]c(C)c(C(=O)NCCN(C)C)c1C [Example 54, 5-[6-(2-Methoxyphenyl)-2-oxo-1,2-dihydroindol-3-ylidenemethyl]-2,4-dimethyl-1H-pyrrole-3-carboxylic Acid (2-dimethylaminoethyl)amide]
15 | > 20 | > 100 | < 0.0005 | – | > 100 | CCOC(=O)CNC(=O)c1c[nH]c(/C=C2\C(=O)Nc3ccc(S(=O)(=O)NC)c(C)c32)c1C [Example 116, {[4-Methyl-5-(4-methyl-5-methylsulfamoyl-2-oxo-1,2-dihydro-indol-3-ylidenemethyl)-1H-pyrrole-3-carbonyl]-amino}-acetic Acid Ethyl Ester]
16 | – | – | – | > 100 | > 100 | CCN(CC)CCCNC(=O)c1c(C)[nH]c(/C=C2\C(=O)Nc3cccc(C(=O)Nc4ccc(OC)c(Cl)c4)c32)c1C [Example 69, 3-[4-(3-Diethylaminopropylcarbamoyl)-3,5-dimethyl-1H-pyrrol-2-ylmethylene]-2-oxo-2,3-dihydro-1H-indole-4-carboxylic Acid (3-chloro-4-methoxyphenyl)amide]
17 | – | – | – | > 100 | – | CCN(CC)CCCNC(=O)c1c(C)[nH]c(/C=C2\C(=O)Nc3cc(-c4ccccc4)ccc32)c1C [Example 68, 2,4-Dimethyl-5-(2-oxo-6-phenyl-1,2-dihydroindol-3-ylidenemethyl)-1H-pyrrole-3-carboxylic Acid (3-diethylaminopropyl)amide]
18 | – | – | – | > 100 | > 100 | CCOC(=O)CNC(=O)c1c[nH]c(/C=C2\C(=O)Nc3ccc(S(=O)(=O)NC)cc32)c1C [Example 117, {[4-Methyl-5-(5-methylsulfamoyl-2-oxo-1,2-dihydro-indol-3-ylidenemethyl)-1H-pyrrole-3-carbonyl]-amino}-acetic Acid Ethyl Ester]
19 | – | – | – | – | > 100 | Cc1[nH]c(/C=C2\C(=O)Nc3ccc(S(=O)(=O)Nc4ccccc4)cc32)c(C)c1C(=O)N1CCN(C)CC1 [Example 86, 3-[3,5-Dimethyl-4-(4-methylpiperazine-1-carbonyl)-1H-pyrrol-2-ylmethylene]-2-oxo-2,3-dihydro-1H-indole-5-sulfonic Acid Phenylamide]
20 | 1.93 | 1.2 | 0.002 | – | > 100 | CNS(=O)(=O)c1ccc2c(c1)/C(=C/c1[nH]cc(C(=O)NCC(=O)O)c1C)C(=O)N2 [Example 118, {[4-Methyl-5-(5-methylsulfamoyl-2-oxo-1,2-dihydro-indol-3-ylidenemethyl)-1H-pyrrole-3-carbonyl]-amino}-acetic Acid]
21 | – | – | – | > 100 | – | CCN(CC)CCNC(=O)c1c(C(C)C)[nH]c(/C=C2\C(=O)Nc3ccc(Br)cc32)c1C(C)C [Example 71]
22 | 7.3 | 7.48 | 0.006 | – | > 100 | CNS(=O)(=O)c1ccc2c(c1)/C(=C/c1[nH]cc(C(=O)O)c1C)C(=O)N2 [Example 115, 4-Methyl-5-(5-methylsulfamoyl-2-oxo-1,2-dihydro-indol-3-ylidenemethyl)-1H-pyrrole-3-carboxylic Acid]
23 | – | – | – | > 100 | > 100 | Cc1[nH]c(/C=C2\C(=O)Nc3ccc(S(=O)(=O)N(C)C)cc32)c(C)c1C(=O)NCCN1CCCC1 [Example 82, 5-(5-Dimethylsulfamoyl-2-oxo-1,2-dihydroindol-3-ylidenemethyl)-2,4-dimethyl-1H-pyrrole-3-carboxylic Acid (2-pyrrolidin-1-ylethyl)amide]
